Results as given in ChEMBL document CHEMBL1201862, “PubChem BioAssay data set” (2004).
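Assay format: 96-well plates, 48-hour exposure. Here, GI50 denotes the concentration required for 50% inhibition of growth.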 Active and inactive are the calls of the source. Cut-off read from the data, not from the text of the source: active = GI50 up to about 1.1 µM and inactive = higher.

Tests used:
Test in all cases: NCI tumour cell line growth inhibition, 48 h
[1] = test system: DMS-114
[2] = test system: DU-145
[3] = test system: EKVX
[4] = test system: HOP-62
[5] = test system: IGROV-1
[6] = test system: M19-MEL
[7] = test system: MCF7
[8] = test system: MDA-MB-435
[9] = test system: MDA-N
[10] = test system: NCI-H226
[11] = test system: NCI-H460
[12] = test system: NCI/ADR-RES
[13] = test system: OVCAR-8
[14] = test system: PC-3
[15] = test system: SK-MEL-28
[16] = test system: SW-620
[17] = test system: UACC-257
[18] = test system: UACC-62
[19] = test system: SNB-75

Compound	GI50 [1]	GI50 [2]	GI50 [3]	GI50 [4]	GI50 [5]	GI50 [6]	GI50 [7]	GI50 [8]	GI50 [9]	GI50 [10]	GI50 [11]	GI50 [12]	GI50 [13]	GI50 [14]	GI50 [15]	GI50 [16]	GI50 [17]	GI50 [18]	GI50 [19]
COc1cc(/C=C2/C(=O)N(C(=O)c3ccccc3O)N=C2C)ccc1O	0.171 µM (active)	0.658 µM (active)	0.586 µM (active)	1.77 µM (inactive)	0.123 µM (active)	0.653 µM (active)	0.514 µM (active)	0.409 µM (active)	0.385 µM (active)	0.701 µM (active)	0.161 µM (active)	0.596 µM (active)	0.352 µM (active)	0.802 µM (active)	34.4 µM (inactive)	1.36 µM (inactive)	0.838 µM (active)	0.0518 µM (active)	–
CSc1ccc(/C=C2\CN(C)C/C(=C\c3ccc(SC)cc3)C2=O)cc1	24.9 µM (inactive)	–	81.3 µM (inactive)	> 100 µM (inactive)	32.6 µM (inactive)	35.1 µM (inactive)	–	–	–	> 100 µM (inactive)	29.2 µM (inactive)	–	13.5 µM (inactive)	–	> 100 µM (inactive)	23 µM (inactive)	31.7 µM (inactive)	55.8 µM (inactive)	12.5 µM (inactive)
CC(=O)C1=C(O)C(N)C2Cc3c(c(O)c4c(O)c(C)ccc4c3C)C(=O)C2(O)C1=O (configuration not stated)	2.38 µM (inactive)	–	1.89 µM (inactive)	1.58 µM (inactive)	2.96 µM (inactive)	2.48 µM (inactive)	–	–	–	1.56 µM (inactive)	1.3 µM (inactive)	–	1.39 µM (inactive)	–	2.06 µM (inactive)	2.79 µM (inactive)	2.48 µM (inactive)	1.25 µM (inactive)	3.11 µM (inactive)
O=C(CC1(O)C(=O)Nc2ccc([N+](=O)[O-])cc21)c1ccc2ccccc2c1 (configuration not stated)	> 100 µM (inactive)	–	> 100 µM (inactive)	> 100 µM (inactive)	> 100 µM (inactive)	> 100 µM (inactive)	–	–	–	> 100 µM (inactive)	> 100 µM (inactive)	–	> 100 µM (inactive)	–	> 100 µM (inactive)	> 100 µM (inactive)	> 100 µM (inactive)	> 100 µM (inactive)	> 100 µM (inactive)
Nc1cn(C2OC(CC(c3ccccc3)(c3ccccc3)c3ccccc3)C(O)C2O)c(=O)[nH]c1=O (configuration not stated)	15.5 µM (inactive)	–	33.7 µM (inactive)	23.4 µM (inactive)	23.9 µM (inactive)	18.4 µM (inactive)	–	–	–	73.8 µM (inactive)	18.3 µM (inactive)	–	24.9 µM (inactive)	–	29.3 µM (inactive)	14.8 µM (inactive)	22.9 µM (inactive)	14.2 µM (inactive)	> 100 µM (inactive)
Cc1ccc(NC(=O)CCc2nnc(S)[nH]2)cc1	39.5 µM (inactive)	–	> 100 µM (inactive)	> 100 µM (inactive)	> 100 µM (inactive)	> 100 µM (inactive)	–	–	–	> 100 µM (inactive)	> 100 µM (inactive)	–	> 100 µM (inactive)	–	> 100 µM (inactive)	> 100 µM (inactive)	> 100 µM (inactive)	17 µM (inactive)	83.2 µM (inactive)
COc1cc(OC)c2ssc3c(OC)cc(OC)c4ssc1c2-c43	> 100 µM (inactive)	–	> 100 µM (inactive)	> 100 µM (inactive)	> 100 µM (inactive)	> 100 µM (inactive)	–	–	–	> 100 µM (inactive)	> 100 µM (inactive)	–	> 100 µM (inactive)	–	> 100 µM (inactive)	> 100 µM (inactive)	> 100 µM (inactive)	> 100 µM (inactive)	31.3 µM (inactive)
CC(=O)N/C(=C\c1ccc(/C=C(\NC(C)=O)c2nc3cc(Cl)ccc3[nH]2)cc1)c1nc2ccccc2[nH]1	> 100 µM (inactive)	–	> 100 µM (inactive)	> 100 µM (inactive)	> 100 µM (inactive)	> 100 µM (inactive)	–	–	–	> 100 µM (inactive)	> 100 µM (inactive)	–	> 100 µM (inactive)	–	> 100 µM (inactive)	> 100 µM (inactive)	–	> 100 µM (inactive)	> 100 µM (inactive)
N#C/C(=C1\SC(/N=N/c2ccccc2)C(=O)N1c1ccccc1)c1nc2ccccc2[nH]1 (configuration not stated)	> 100 µM (inactive)	–	> 100 µM (inactive)	23.4 µM (inactive)	20.5 µM (inactive)	> 100 µM (inactive)	–	–	–	71.1 µM (inactive)	36.1 µM (inactive)	–	> 100 µM (inactive)	–	> 100 µM (inactive)	> 100 µM (inactive)	78.2 µM (inactive)	> 100 µM (inactive)	36.7 µM (inactive)
CCOC(=O)/C=C1\Nc2ccccc2-n2nnnc21	> 100 µM (inactive)	–	> 100 µM (inactive)	> 100 µM (inactive)	> 100 µM (inactive)	> 100 µM (inactive)	–	–	–	> 100 µM (inactive)	> 100 µM (inactive)	–	> 100 µM (inactive)	–	> 100 µM (inactive)	23.7 µM (inactive)	> 100 µM (inactive)	> 100 µM (inactive)	> 100 µM (inactive)
CCCCCCCCCCCCCCCCNc1cccc2ccccc12	> 100 µM (inactive)	–	> 100 µM (inactive)	> 100 µM (inactive)	> 100 µM (inactive)	> 100 µM (inactive)	–	–	–	> 100 µM (inactive)	> 100 µM (inactive)	–	> 100 µM (inactive)	–	> 100 µM (inactive)	> 100 µM (inactive)	> 100 µM (inactive)	> 100 µM (inactive)	> 100 µM (inactive)
C/C(CCn1[nH]c(=O)ccc1=O)=N\OCCCc1ccccc1	> 100 µM (inactive)	–	> 100 µM (inactive)	> 100 µM (inactive)	> 100 µM (inactive)	> 100 µM (inactive)	–	–	–	> 100 µM (inactive)	> 100 µM (inactive)	–	> 100 µM (inactive)	–	> 100 µM (inactive)	> 100 µM (inactive)	> 100 µM (inactive)	> 100 µM (inactive)	> 100 µM (inactive)
COC(=O)C1=CC(O)CCC1c1ccc(OC)cc1 (configuration not stated)	> 100 µM (inactive)	–	> 100 µM (inactive)	> 100 µM (inactive)	> 100 µM (inactive)	> 100 µM (inactive)	–	–	–	> 100 µM (inactive)	> 100 µM (inactive)	–	> 100 µM (inactive)	–	> 100 µM (inactive)	> 100 µM (inactive)	> 100 µM (inactive)	> 100 µM (inactive)	> 100 µM (inactive)
O=[N+]([O-])c1nccn1CC(O)CN1CC1 (configuration not stated)	50.7 µM (inactive)	–	> 100 µM (inactive)	74.3 µM (inactive)	71.3 µM (inactive)	63.4 µM (inactive)	–	–	–	94 µM (inactive)	27.6 µM (inactive)	–	37.8 µM (inactive)	–	> 100 µM (inactive)	63.8 µM (inactive)	83.9 µM (inactive)	44.8 µM (inactive)	42.8 µM (inactive)
C1=C(c2ccccc2)C(OC2Oc3ccccc3C=C2c2ccccc2)Oc2ccccc21 (configuration not stated)	> 100 µM (inactive)	–	> 100 µM (inactive)	> 100 µM (inactive)	> 100 µM (inactive)	> 100 µM (inactive)	–	–	–	> 100 µM (inactive)	> 100 µM (inactive)	–	> 100 µM (inactive)	–	> 100 µM (inactive)	31.3 µM (inactive)	> 100 µM (inactive)	> 100 µM (inactive)	24.6 µM (inactive)
CS/C(=N\c1ccc([N+](=O)[O-])cc1C#N)NC(=O)c1ccccc1	> 100 µM (inactive)	–	94.8 µM (inactive)	> 100 µM (inactive)	> 100 µM (inactive)	> 100 µM (inactive)	–	–	–	33.9 µM (inactive)	> 100 µM (inactive)	–	> 100 µM (inactive)	–	> 100 µM (inactive)	> 100 µM (inactive)	> 100 µM (inactive)	> 100 µM (inactive)	28.4 µM (inactive)
